Biological target: T1, PDE4B2 (Homo sapiens, UniProt Q07343)
T1 construct: made in house; host or cells: SF21 insect cells (baculovirus; virus prepared in SF9 cells)
Assay: Inhibition of PDE4 activity: PDE4B2 [3H]cAMP SPA enzyme assay
Format: biochemical
Conditions: recombinant PDE4B2 (SF21 cell supernatant), modified SPA test, 0.5 μM cAMP, 15 min at 37° C.; read-out: Inhibition of the PDE4 activity, −log IC50 (converted)
Protocol: The PDE4B2 (GB no. M97515) was a gift of Prof. M. Conti (Stanford University, USA). It was amplified from the original plasmid (pCMV5) via PCR with primers Rb9 (5′-[…]-3′) and Rb10 (5′-[…]-3′) and cloned into the pCR-Bac vector (Invitrogen, Groningen, NL).
The recombinant baculovirus was prepared by means of homologous recombination in SF9 insect cells.
The expression plasmid was cotransfected with Bac-N-Blue (Invitrogen, Groningen, NL) or Baculo-Gold DNA (Pharmingen, Hamburg) using a standard protocol (Pharmingen, Hamburg). Wt virus-free recombinant virus supernatant was selected using plaque assay methods. After that, high-titre virus supernatant was prepared by amplifying 3 times. PDE was expressed in SF21 cells by infecting 2×10^6 cells/ml with an MOI (multiplicity of infection) between 1 and 10 in serum-free SF900 medium (Life Technologies, Paisley, UK). The cells were cultured at 28° C. for 48-72 hours, after which they were pelleted for 5-10 min at 1000 g and 4° C.
The SF21 insect cells were resuspended, at a concentration of approx. 10^7 cells/ml, in ice-cold (4° C.) homogenization buffer (20 mM Tris, pH 8.2, containing the following additions: 140 mM NaCl, 3.8 mM KCl, 1 mM EGTA, 1 mM MgCl2, 10 mM β-mercaptoethanol, 2 mM benzamidine, 0.4 mM Pefablock, 10 μM leupeptin, 10 μM pepstatin A, 5 μM trypsin inhibitor) and disrupted by ultrasonication. The homogenate was then centrifuged for 10 min at 1000×g and the supernatant was stored at −80° C. until subsequent use (see below). The protein content was determined by the Bradford method (BioRad, Munich) using BSA as the standard.
PDE4B2 activity is inhibited by the said compounds in a modified SPA (scintillation proximity assay) test, supplied by Amersham Biosciences (see procedural instructions “phosphodiesterase [3H]cAMP SPA enzyme assay, code TRKQ 7090”), carried out in 96-well microtitre plates (MTP's). The test volume is 100 μl and contains 20 mM Tris buffer (pH 7.4), 0.1 mg of BSA (bovine serum albumin)/ml, 5 mM Mg^2+, 0.5 μM cAMP (including about 50,000 cpm of [3H]cAMP), 1 μl of the respective substance dilution in DMSO and sufficient recombinant PDE (1000×g supernatant, see above) to ensure that 10-20% of the cAMP is converted under the said experimental conditions. […] After a preincubation of 5 min at 37° C., the reaction is started by adding the substrate (cAMP) and the assay is incubated for a further 15 min; after that, it is stopped by adding SPA beads (50 μl). In accordance with the manufacturer's instructions, the SPA beads had previously been resuspended in water, but were then diluted 1:3 (v/v) in water; the diluted solution also contains 3 mM IBMX to ensure a complete PDE activity stop. After the beads have been sedimented (>30 min), the MTP's are analyzed in commercially available […]. The corresponding IC50 values of the compounds for the inhibition of PDE activity are determined from the concentration-effect curves by means of non-linear regression.

T1 sequence (Q07343 1-564 isoform Q07343-2): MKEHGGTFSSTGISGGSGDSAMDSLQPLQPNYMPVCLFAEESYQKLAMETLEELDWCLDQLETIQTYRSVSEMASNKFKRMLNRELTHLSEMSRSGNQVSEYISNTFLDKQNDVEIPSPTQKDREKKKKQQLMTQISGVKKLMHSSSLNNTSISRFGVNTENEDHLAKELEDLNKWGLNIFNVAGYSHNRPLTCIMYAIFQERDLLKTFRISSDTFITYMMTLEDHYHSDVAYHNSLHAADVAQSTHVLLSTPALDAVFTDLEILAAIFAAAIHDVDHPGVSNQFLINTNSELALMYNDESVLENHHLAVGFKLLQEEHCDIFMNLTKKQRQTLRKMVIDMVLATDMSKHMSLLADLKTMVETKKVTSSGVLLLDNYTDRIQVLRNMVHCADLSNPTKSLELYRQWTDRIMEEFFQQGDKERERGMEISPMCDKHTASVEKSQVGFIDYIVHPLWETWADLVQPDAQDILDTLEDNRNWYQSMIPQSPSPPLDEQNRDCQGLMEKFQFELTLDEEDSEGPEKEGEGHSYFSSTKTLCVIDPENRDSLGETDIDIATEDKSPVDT

IC50 | SMILES
0.955 to 8.71 nM | COc1cc2c(cc1OC)[C@H]1C[C@H](O)CC[C@H]1N=C2c1ccc(C(=O)N2CCN(CCN3CCOCC3)CC2)cc1 (racemic) [Compound 9, 1-[4-((2RS,4aRS,10bRS)-2-Hydroxy-8,9-dimethoxy-1,2,3,4,4a,10b-hexahydro-phenanthridin-6-yl)-phenyl]-1-[4-(2-morpholin-4-yl-ethyl)-piperazin-1-yl]methanone]
0.955 to 8.71 nM | COc1cc2c(cc1OC)[C@H]1C[C@H](O)CC[C@H]1N=C2c1ccc(C(=O)N2CCN(CC(=O)N3CCCC3)CC2)cc1 (racemic) [Compound 12, 2-(4-{1-[4-((2RS,4aRS,10bRS)-2-Hydroxy-8,9-dimethoxy-1,2,3,4,4a,10b-hexahydro-phenanthridin-6-yl)-phenyl]-methanoyl}-piperazin-1-yl)-1-pyrrolidin-1-yl-ethanone]
0.955 to 8.71 nM | COc1cc2c(cc1OC(F)F)[C@H]1C[C@H](O)CC[C@H]1N=C2c1ccc(C(=O)N2CCN(CCN3CCOCC3)CC2)cc1 (racemic) [Compound 29, 1-{4-[(2RS,4aRS,10bRS)-9-(1,1-Difluoro-methoxy)-2-hydroxy-8-methoxy-1,2,3,4,4a,10b-hexahydro-phenanthridin-6-yl]-phenyl}-1-[4(2-morpholin-4-yl-ethyl)-piperazin-1-yl]-methanone]
0.955 to 8.71 nM | COc1cc2c(cc1OC)C1CC(O)CCC1N=C2c1ccc(C(=O)NN2CCOCC2)cc1 (centres unmarked) [Compound 4]
0.955 to 8.71 nM | COc1cc2c(cc1OC)[C@H]1C[C@H](O)CC[C@H]1N=C2c1ccc(C(=O)NNC(=O)N2CCOCC2)cc1 (racemic) [Compound 22, 4-((2RS,4aRS,10bRS)-2-Hydroxy-8,9-dimethoxy-1,2,3,4,4a,10b-hexahydro-phenanthridin-6-yl)benzoic acid N′-(1-morpholin-4-yl-methanoyl)-hydrazide]
0.955 to 8.71 nM | COc1cc2c(cc1OC(F)F)C1CC(O)CCC1N=C2c1ccc(C(=O)N2CCN(CC(=O)N3CCOCC3)CC2)cc1 (stereo not drawn) [Compound 32, 2-[4-(1-{4-[(2RS,4aRS,10bRS)-9-(1,1-Difluoro-methoxy)-2-hydroxy-8-methoxy-1,2,3,4,4a,10bhexahydro-phenanthridin-6-yl]-phenyl}-methanoyl)-piperazin-1-yl]-1-morpholin-4-yl-ethanone]
0.955 to 8.71 nM | COc1cc2c(cc1OC)[C@H]1C[C@H](O)CC[C@H]1N=C2c1ccc(C(=O)N2CCN(CC(=O)N3CCOCC3)CC2)cc1 (racemic) [Compound 17, 2-(4-{1-[4-((2RS,4aRS,10bRS)-2-Hydroxy-8,9-dimethoxy-1,2,3,4,4a,10b-hexahydro-phenanthridin-6-yl)-phenyl]-methanoyl}-piperazin-1-yl)-1-morpholin-4-yl-ethanone]

The remaining lines, values behind:

SMILES | IC50
COc1cc2c(cc1OC)[C@H]1C[C@H](O)CC[C@H]1N=C2c1ccc(C(=O)NN2CCN(C)CC2)cc1 (racemic) [Compound 3, 4-((2RS,4aRS,10bRS)-2-Hydroxy-8,9-dimethoxy-1,2,3,4,4a,10b-hexahydro-phenanthridin-6-yl)-N-(4-methyl-piperazin-1-yl)benzamide] | 0.955 to 8.71 nM
COc1cc2c(cc1OC)[C@H]1C[C@H](O)CC[C@H]1N=C2c1ccc(C(=O)NCCc2ccncc2)cc1 (racemic) [Compound 20, 4-((2RS,4aRS,10bRS)-2-Hydroxy-8,9-dimethoxy-1,2,3,4,4a,10b-hexahydro-phenanthridin-6-yl)-N-(2-pyridin-4-yl-ethyl)-benzamide] | 0.955 to 8.71 nM
COc1cc2c(cc1OC(F)F)[C@H]1C[C@H](O)CC[C@H]1N=C2c1ccc(C(=O)N2CCCC2)cc1 (racemic) [Compound 33, 1-{4-[(2RS,4aRS,10bRS)-9-(1,1-Difluoro-methoxy)-2-hydroxy-8-methoxy-1,2,3,4,4a,10b-hexahydro-phenanthridin-6-yl]-phenyl}-1-pyrrolidin-1-yl-methanone] | 0.955 to 8.71 nM
COC(=O)CN(C)C(=O)c1ccc(C2=NC3CCC(O)CC3c3cc(OC)c(OC)cc32)cc1 (centres unmarked) [Compound 5] | 0.955 to 8.71 nM
COc1cc2c(cc1OC)[C@H]1C[C@H](O)CC[C@H]1N=C2c1ccc(C(=O)NC2CC2)cc1 (racemic) [Compound 11, N-Cyclopropyl-4-((2RS,4aRS,10bRS)-2-hydroxy-8,9-dimethoxy-1,2,3,4,4a,10b-hexahydro-phenanthridin-6-yl)-benzamide] | 0.955 to 8.71 nM
COCCN(CCOC)C(=O)c1ccc(C2=N[C@@H]3CC[C@@H](O)C[C@@H]3c3cc(OC(F)F)c(OC)cc32)cc1 (racemic) [Compound 26, 4-[(2RS,4aRS,10bRS)-9-(1,1-Difluoro-methoxy)-2-hydroxy-8-methoxy-1,2,3,4,4a,10b-hexahydro-phenanthridin-6-yl]-N,N-bis(2-methoxy-ethyl)-benzamide] | 0.955 to 8.71 nM
COc1cc2c(cc1OC)[C@H]1C[C@H](O)CC[C@H]1N=C2c1ccc(C(=O)NCCc2ccccn2)cc1 (racemic) [Compound 7, 4-((2RS,4aRS,10bRS)-2-Hydroxy-8,9-dimethoxy-1,2,3,4,4a,10b-hexahydro-phenanthridin-6-yl)-N-(2-pyridin-2-yl-ethyl)-benzamide] | 0.955 to 8.71 nM
COc1cc2c(cc1OC)[C@H]1C[C@H](O)CC[C@H]1N=C2c1ccc(C(=O)Nc2cnc3ccccc3c2)cc1 (racemic) [Compound 6, 4-((2RS,4aRS,10bRS)-2-Hydroxy-8,9-dimethoxy-1,2,3,4,4a,10b-hexahydro-phenanthridin-6-yl)-N-quinolin-3-yl-benzamide] | 0.955 to 8.71 nM
COc1ccc(NC(=O)c2ccc(C3=N[C@@H]4CC[C@@H](O)C[C@@H]4c4cc(OC)c(OC)cc43)cc2)c(OC)n1 (racemic) [Compound 23, N-(2,6-Dimethoxy-pyridin-3-yl)-4-((2RS,4aRS,10bRS)-2-hydroxy-8,9-dimethoxy-1,2,3,4,4a,10b-hexahydro-phenanthridin-6-yl)benzamide] | 0.955 to 8.71 nM
COc1cc2c(cc1OC(F)F)[C@H]1C[C@H](O)CC[C@H]1N=C2c1ccc(C(=O)NCCCN2CCOCC2)cc1 (racemic) [Compound 28, 4-[(2RS,4aRS,10bRS)-9-(1,1-Difluoro-methoxy)-2-hydroxy-8-methoxy-1,2,3,4,4a,10b-hexahydro-phenanthridin-6-yl]-N-(3-morpholin-4-yl-propyl)-benzamide] | 0.955 to 8.71 nM
COc1cc2c(cc1OC(F)F)[C@H]1C[C@H](O)CC[C@H]1N=C2c1ccc(C(=O)NC2CC2)cc1 (racemic) [Compound 25, N-Cyclopropyl-4-[(2RS,4aRS,10bRS)-9-(1,1-difluoro-methoxy)-2-hydroxy8-methoxy-1,2,3,4,4a,10b-hexahydro-phenanthridin-6-yl]-benzamide] | 0.955 to 8.71 nM
COc1cc2c(cc1OC(F)F)[C@H]1C[C@H](O)CC[C@H]1N=C2c1ccc(C(=O)N2CCN(c3ccncc3)CC2)cc1 (racemic) [Compound 30, 1-{4-[(2RS,4aRS,10bRS)-9-(1,1-Difluoro-methoxy)-2-hydroxy-8-methoxy-1,2,3,4,4a,10b-hexahydro-phenanthridin-6-yl]-phenyl}-1-(4-pyridin-4-yl-piperazin-1-yl)-methanone] | 0.955 to 8.71 nM
COc1cc2c(cc1OC)C1CC(O)CCC1N=C2c1ccc(C(=O)NCCN2CCOCC2)cc1 (centres unmarked) [Compound 1] | 0.955 to 8.71 nM
COc1cc2c(cc1OC(F)F)[C@H]1C[C@H](O)CC[C@H]1N=C2c1ccc(C(=O)NCCN2CCOCC2)cc1 (racemic) [Compound 27, 4-[(2RS,4aRS,10bRS)-9-(1,1-Difluoro-methoxy)-2-hydroxy-8-methoxy-1,2,3,4,4a,10b-hexahydro-phenanthridin-6-yl]-N-(2-morpholin-4-yl-ethyl)-benzamide] | 0.955 to 8.71 nM
COc1cc2c(cc1OC)C1CC(O)CCC1N=C2c1ccc(C(=O)N2CCN(c3ccccn3)CC2)cc1 (centres unmarked) [Compound 8] | 0.955 to 8.71 nM
COc1cc2c(cc1OC)[C@H]1C[C@H](O)CC[C@H]1N=C2c1ccc(C(=O)NCCc2cccnc2)cc1 (racemic) [Compound 21, 4-((2RS,4aRS,10bRS)-2-Hydroxy-8,9-dimethoxy-1,2,3,4,4a,10b-hexahydro-phenanthridin-6-yl)-N-(2-pyridin-3-yl-ethyl)-benzamide] | 0.955 to 8.71 nM

Source: US20070185149A1, “Novel amido-substituted hydroxy-6-phenylphenanthridines and their use as pde4 inhibtors” (ALTANA PHARMA AG, priority 2004, published 2007)
